Source: article PMC11822212, “High-throughput screening identifies Aurora kinase B as a critical therapeutic target for Merkel cell carcinoma” (Nature Communications, 2025)
Several values for one entry are separate records, joined by “and”; a condition that tells them apart may be missing. Equal entries are not always repeated. Structures can show the parent of a compound that is named as a salt. Where two headings read alike, the source gives them in different places.

How the values were obtained:
MCC13 cells (VN-MCC) = experiment: qHTS cell viability (CellTiter-Glo, 72 h; primary and follow-up small molecule screen); assay type: cell-based, human
MCC26 cells (VN-MCC) = experiment: as above; assay type: cell-based, human
UISO cells (VN-MCC) = experiment: as above; assay type: cell-based, human
WAGA cells (VP-MCC) = experiment: as above; assay type: cell-based, human
MKL-1 cells (VP-MCC) = experiment: as above; assay type: cell-based, human
MKL-2 cells (VP-MCC) = experiment: as above; assay type: cell-based, human
HACAT cells = experiment: qHTS cell viability (CellTiter-Glo, 72 h; primary screen), control cell line; assay type: cell-based, human
HEK293T cells = experiment: as above; assay type: cell-based, human
NIH-3T3 cells = experiment: as above; assay type: cell-based, mouse
CRL-7250 cells = experiment: as above; assay type: cell-based
[1] = tested on: MCC cell lines (WAGA, MKL-1, MKL-2, MCC13, MCC26, UISO); experiment: qHTS cell viability, all six MCC cell lines as a group (mean AUC, MCC.avg); assay type: cell-based, human
[2] = tested on: VP-MCC cell lines (WAGA, MKL-1, MKL-2); experiment: qHTS cell viability, VP-MCC cell lines as a group (mean AUC, VP.MCC.avg); assay type: cell-based, human
[3] = tested on: VN-MCC cell lines (MCC13, MCC26, UISO); experiment: qHTS cell viability, VN-MCC cell lines as a group (mean AUC, VN.MCC.avg); assay type: cell-based, human
[4] = tested on: control cell lines (HACAT, HEK293T, CRL-7250, NIH-3T3); experiment: qHTS cell viability, control cell lines as a group (mean AUC, Control.avg); assay type: cell-based
[5] = tested on: six MCC cell lines and four control cell lines; experiment: qHTS cell viability, all 10 cell lines screened; assay type: cell-based

| SMILES | MCC13_AUC (MCC13 cells (VN-MCC)) | MCC26_AUC (MCC26 cells (VN-MCC)) | UISO_AUC (UISO cells (VN-MCC)) | WAGA_AUC (WAGA cells (VP-MCC)) | MKL1_AUC (MKL-1 cells (VP-MCC)) | MKL2_AUC (MKL-2 cells (VP-MCC)) | HACAT_AUC (HACAT cells) | HEK293T_AUC (HEK293T cells) | NIH3T3_AUC (NIH-3T3 cells) | CRL7250_AUC (CRL-7250 cells) | MCC_Avg_AUC [1] | Control-VP-MCC [2] | VP-MCC_Avg_AUC [2] | Control-VN-MCC [3] | VN-MCC_Avg_AUC [3] | Control_Avg_AUC [4] | Control-MCC [5] | also measured |
| --- | --- | --- | --- | --- | --- | --- | --- | --- | --- | --- | --- | --- | --- | --- | --- | --- | --- | --- |
| CCCC(C(=O)OCCN(CC)CC)(c1ccccc1)c1ccccc1 [Proadifen hydrochloride] | – | – | – | – | – | – | – | – | – | – | – | – | – | – | – | – | – | MCC13_AUC (MCC13 cells (VN-MCC); NPC library, qHTS dose-response AUC, MCC13): 446.167; MCC26_AUC (MCC26 cells (VN-MCC); NPC library, qHTS dose-response AUC, MCC26): 413.531; UISO_AUC (UISO cells (VN-MCC); NPC library, qHTS dose-response AUC, UISO): 416.723; WAGA_AUC (WAGA cells (VP-MCC); NPC library, qHTS dose-response AUC, WAGA): 421.101; MKL1_AUC (MKL-1 cells (VP-MCC); NPC library, qHTS dose-response AUC, MKL1): 383.197; MKL2_AUC (MKL-2 cells (VP-MCC); NPC library, qHTS dose-response AUC, MKL2): 398.333; HACAT_AUC (HACAT cells; NPC library, qHTS dose-response AUC, HACAT control): 477.751; HEK293T_AUC (HEK293T cells; NPC library, qHTS dose-response AUC, HEK293T control): 426.534; NIH3T3_AUC (NIH-3T3 cells; NPC library, qHTS dose-response AUC, NIH3T3 control): 451.129; CRL7250_AUC (CRL-7250 cells; NPC library, qHTS dose-response AUC, CRL7250 control): 484.159; MCC_Avg_AUC ([1]; NPC library, mean AUC of six MCC cell lines): 413.175; VP-MCC_Avg_AUC ([2]; NPC library, mean AUC of VP-MCC cell lines): 400.877; Control-VP-MCC ([2]; NPC library, therapeutic window: Control avg AUC minus VP-MCC avg AUC): 59.0165; VN-MCC_Avg_AUC ([3]; NPC library, mean AUC of VN-MCC cell lines): 425.473; Control-VN-MCC ([3]; NPC library, therapeutic window: Control avg AUC minus VN-MCC avg AUC): 34.42; Control_Avg_AUC ([4]; NPC library, mean AUC of control cell lines): 459.893; Control-MCC ([5]; NPC library, therapeutic window: Control avg AUC minus MCC avg AUC): 46.7182 |
| CC[C@H]1C[C@@H]2C[C@H]3c4[nH]c5ccc(OC)cc5c4CCN(C2)[C@@H]13.Cl [Ibogaine hydrochloride] | 435.55 | 419.663 | 418.883 | 409.341 | 439.962 | 442.315 | 487.75 | 455.404 | 484.099 | 490.013 | 427.619 | 48.777 | 430.539 | 54.6174 | 424.699 | 479.316 | 51.6972 | – |
| CCC(=O)OC1(c2ccccc2)CCN(C)CC1.Cl | 464.627 | 456.799 | 451.795 | 438.281 | 398.305 | 404.215 | 483.91 | 479.823 | 479.714 | 443.177 | 435.67 | 58.056 | 413.6 | 13.9158 | 457.741 | 471.656 | 35.9859 | – |
| COc1cc(CCN)c(OC)cc1Br.Cl | 402.391 | 407.575 | 386.993 | 421.438 and 421.439 | 396.289 | 390.615 | 486.493 | 422.838 | 468.152 | 439.439 | 400.883 | 51.4501 | 402.781 | 55.2444 | 398.986 | 454.231 | 53.3472 | – |
